Measurements published in the OligoGym collection.
Strand notation (5' to 3'): a small letter for the sugar, then the base; units joined by * are phosphorothioate-linked, units joined directly phosphodiester-linked; [ ] holds rarer units or linkages, { } end groups; capitals alone tell only the bases. d = 2'-deoxy (DNA); m = 2'-O-methyl

How the values were obtained:
LINC-PINT [1] = experiment: HEK293-TLR8, 100 nM ASO, then resiquimod
LINC-PINT [2] = experiment: HEK293-TLR7, 100 nM ASO, then resiquimod
EGFR [3] = experiment: HEK293-TLR8, 100 nM ASO, then resiquimod
EGFR [4] = experiment: HEK293-TLR7, 100 nM ASO, then resiquimod

| Substance | TLR8 potentiation (NF-kB luciferase) (fold of resiquimod alone) (LINC-PINT [1]) | TLR7 signal (NF-kB luciferase) (% of resiquimod alone) (LINC-PINT [2]) | TLR8 potentiation (NF-kB luciferase) (fold of resiquimod alone) (EGFR [3]) | TLR7 signal (NF-kB luciferase) (% of resiquimod alone) (EGFR [4]) |
| --- | --- | --- | --- | --- |
| mC*mC*mA*mU*mC*dC*dC*dT*dT*dC*dT*dG*dC*dT*dG*mC*mC*mA*mA*mG | 2.38 | 52.6 | – | – |
| mG*mG*mU*mC*mC*dC*dA*dT*dC*dC*dC*dT*dT*dC*dT*mG*mC*mU*mG*mC | 1.28 | 20.8 | – | – |
| mU*mG*mU*mU*mU*dC*dC*dC*dC*dG*dG*dA*dG*dA*dG*mC*mA*mA*mU*mG | 1.62 | 30.9 | – | – |
| mA*mA*mA*mA*mG*dT*dG*dG*dG*dA*dA*dA*dT*dA*dA*mA*mG*mG*mU*mU | 1.48 | 30.9 | – | – |
| mU*mG*mA*mC*mA*dT*dT*dT*dC*dG*dT*dG*dG*dC*dT*mC*mC*mU*mA*mC | 1.73 | 33.6 | – | – |
| mU*mC*mU*mC*mU*dC*dT*dG*dG*dT*dC*dC*dC*dA*dT*mC*mC*mC*mU*mU | 3.68 | 43.8 | – | – |
| mG*mU*mU*mC*mA*dG*dT*dC*dA*dG*dA*dT*dC*dG*dC*mU*mG*mG*mG*mA | 1.55 | 17.5 | – | – |
| mC*mA*mA*mG*mC*dC*dC*dC*dA*dG*dC*dG*dT*dT*dC*mC*mU*mC*mC*mG | 2.74 | 45.2 | – | – |
| mC*mA*mU*mC*mC*dC*dT*dT*dC*dT*dG*dC*dT*dG*dC*mC*mA*mA*mG*mC | 2.95 | 54.3 | – | – |
| mC*mC*mU*mU*mC*dT*dC*dT*dC*dT*dG*dG*dT*dC*dC*mC*mA*mU*mC*mC | 3.01 | 60.9 | – | – |
| mC*mU*mU*mU*mA*dT*dA*dT*dT*dA*dC*dA*dA*dA*dG*mC*mU*mA*mC*mU | 2.11 | 54.8 | – | – |
| mC*mA*mC*mU*mG*dT*dA*dT*dT*dT*dT*dA*dT*dT*dA*mC*mA*mG*mA*mA | 2.67 | 58.1 | – | – |
| mU*mC*mU*mC*mU*dG*dG*dT*dC*dC*dC*dA*dT*dC*dC*mC*mU*mU*mC*mU | 5.44 | 78.2 | – | – |
| mG*mC*mG*mU*mA*dG*dT*dT*dT*dC*dT*dC*dT*dT*dC*mC*mU*mC*mC*mC | 1.86 | 27.2 | – | – |
| mC*mC*mC*mU*mA*dA*dT*dG*dC*dT*dT*dT*dC*dC*dT*mC*mU*mC*mC*mA | 2.7 | 58.4 | – | – |
| mU*mG*mA*mU*mG*dA*dT*dG*dC*dT*dT*dG*dC*dA*dG*mG*mA*mG*mG*mC | 1.18 | 25.5 | – | – |
| mU*mG*mA*mC*mA*dA*dA*dA*dC*dA*dA*dT*dA*dA*dT*mA*mA*mC*mA*mG | 1.31 | 36.7 | – | – |
| mU*mU*mU*mG*mA*dA*dA*dT*dT*dC*dA*dG*dA*dA*dG*mA*mU*mU*mU*mG | 2.57 | 35.1 | – | – |
| mU*mC*mC*mC*mA*dA*dC*dT*dC*dT*dT*dC*dT*dA*dA*mC*mU*mC*mG*mU | 3.7 | 40.8 | – | – |
| mG*mA*mU*mG*mG*dT*dT*dC*dC*dA*dG*dT*dC*dC*dC*mU*mC*mU*mU*mC | 0.84 | 22.3 | – | – |
| mA*mA*mA*mG*mU*dC*dA*dA*dA*dA*dA*dG*dA*dA*dA*mA*mA*mC*mU*mG | 1.62 | 45.6 | – | – |
| mA*mG*mU*mU*mU*dA*dT*dA*dG*dA*dT*dT*dT*dC*dA*mA*mG*mU*mA*mG | 3.06 | 37.6 | – | – |
| mA*mA*mA*mA*mA*dG*dT*dG*dG*dG*dA*dA*dA*dT*dA*mA*mA*mG*mG*mU | 1.34 | 28.8 | – | – |
| mC*mC*mC*mU*mU*dC*dT*dC*dT*dC*dT*dG*dG*dT*dC*mC*mC*mA*mU*mC | 2.6 | 49.6 | – | – |
| mU*mA*mU*mU*mC*dA*dT*dA*dT*dT*dT*dT*dT*dA*dT*mU*mU*mC*mA*mG | 4.47 | 87.1 | – | – |
| mA*mU*mG*mA*mC*dA*dT*dT*dT*dC*dG*dT*dG*dG*dC*mU*mC*mC*mU*mA | 0.88 | 32.5 | – | – |
| mC*mU*mU*mC*mU*dC*dT*dC*dT*dG*dG*dT*dC*dC*dC*mA*mU*mC*mC*mC | 2.92 | 56.2 | – | – |
| mC*mU*mC*mU*mC*dT*dG*dG*dT*dC*dC*dC*dA*dT*dC*mC*mC*mU*mU*mC | 2.73 | 85 | – | – |

| Substance | TLR8 potentiation (NF-kB luciferase) (fold of resiquimod alone) (LINC-PINT [1]) | TLR7 signal (NF-kB luciferase) (% of resiquimod alone) (LINC-PINT [2]) | TLR8 potentiation (NF-kB luciferase) (fold of resiquimod alone) (EGFR [3]) | TLR7 signal (NF-kB luciferase) (% of resiquimod alone) (EGFR [4]) |
| --- | --- | --- | --- | --- |
| mG*mG*mU*mC*mU*dC*dC*dT*dC*dC*dA*dC*dA*dC*dC*mC*mU*mU*mC*mU | 1.29 | 23.7 | – | – |
| mU*mU*mA*mG*mC*dT*dC*dC*dT*dT*dG*dC*dC*dT*dC*mG*mU*mU*mC*mC | 3.43 | 31.7 | – | – |
| mC*mA*mC*mC*mC*dT*dT*dC*dT*dC*dT*dC*dT*dG*dG*mU*mC*mC*mC*mA | 1.85 | 73.3 | – | – |
| mU*mU*mC*mU*mC*dT*dC*dT*dG*dG*dT*dC*dC*dC*dA*mU*mC*mC*mC*mU | 2.83 | 26.2 | – | – |
| mG*mC*mA*mA*mG*dG*dC*dA*dG*dA*dG*dA*dA*dA*dC*mU*mC*mC*mA*mG | 1.45 | 20 | – | – |
| mU*mG*mG*mC*mG*dT*dA*dG*dT*dT*dT*dC*dT*dC*dT*mU*mC*mC*mU*mC | 2.48 | 32.8 | – | – |
| mG*mU*mC*mU*mC*dC*dT*dC*dC*dA*dC*dA*dC*dC*dC*mU*mU*mC*mU*mC | 1.98 | 25 | – | – |
| mU*mC*mU*mG*mG*dT*dC*dC*dC*dA*dT*dC*dC*dC*dT*mU*mC*mU*mG*mC | 3.36 | 29.4 | – | – |
| mU*mU*mU*mU*mG*dA*dA*dG*dT*dG*dA*dA*dG*dT*dA*mA*mA*mA*mG*mG | – | – | 3.08 | 51.6 |
| mC*mC*mU*mU*mC*dT*dG*dC*dT*dG*dC*dC*dA*dA*dG*mC*mC*mC*mC*mA | 1.45 | 85.6 | – | – |
| mU*mU*mU*mA*mC*dG*dG*dT*dT*dT*dT*dC*dA*dG*dA*mA*mU*mA*mU*mC | – | – | 3.63 | 40.6 |
| mU*mA*mC*mU*mC*dG*dT*dC*dG*dG*dC*dA*dT*dC*dC*mA*mC*mC*mA*mC | – | – | 1.08 | 70.2 |
| mA*mG*mC*mC*mG*dA*dA*dC*dA*dG*dA*dA*dG*dG*dA*mG*mC*mG*mU*mC | 2.54 | 27.7 | – | – |
| mG*mU*mA*mC*mU*dC*dG*dT*dC*dG*dG*dC*dA*dT*dC*mC*mA*mC*mC*mA | – | – | 1.25 | 31.5 |
| mU*mU*mU*mA*mU*dA*dT*dT*dA*dC*dA*dA*dA*dG*dC*mU*mA*mC*mU*mU | 2.71 | 33.7 | – | – |
| mG*mG*mG*mU*mC*dT*dC*dC*dT*dC*dC*dA*dC*dA*dC*mC*mC*mU*mU*mC | 0.87 | 21.5 | – | – |
| mU*mU*mG*mG*mC*dC*dT*dG*dT*dG*dG*dA*dT*dG*dC*mU*mU*mU*mG*mU | 0.75 | 21.4 | – | – |
| mU*mA*mG*mG*mC*dA*dC*dT*dT*dT*dG*dC*dC*dT*dC*mC*mU*mU*mC*mU | – | – | 2.29 | 58.9 |
| mG*mG*mG*mU*mA*dT*dC*dG*dA*dA*dA*dG*dA*dG*dT*mC*mU*mG*mG*mA | – | – | 0.91 | 27.1 |
| mC*mU*mG*mU*mG*dA*dT*dC*dT*dT*dG*dA*dC*dA*dT*mG*mC*mU*mG*mC | – | – | 3.44 | 53.3 |
| mA*mA*mA*mU*mG*dT*dC*dC*dT*dG*dG*dC*dC*dC*dT*mC*mA*mC*mU*mG | 1.45 | 46.5 | – | – |
| mU*mU*mU*mG*mA*dA*dG*dT*dG*dA*dA*dG*dT*dA*dA*mA*mA*mG*mG*mA | – | – | 2.58 | 35.2 |
| mU*mG*mU*mC*mC*dT*dT*dG*dC*dA*dC*dG*dT*dG*dG*mC*mU*mU*mC*mG | – | – | 2.61 | 62.7 |
| mU*mG*mU*mA*mG*dA*dG*dA*dA*dA*dT*dT*dA*dT*dT*mU*mU*mA*mG*mG | – | – | 2.99 | 61.4 |
| mG*mG*mA*mG*mA*dT*dT*dT*dC*dA*dG*dA*dG*dC*dA*mG*mC*mU*mU*mC | – | – | 1.25 | 36.2 |
| mA*mG*mU*mA*mA*dA*dA*dA*dG*dC*dT*dT*dT*dT*dG*mA*mA*mG*mU*mG | – | – | 2.7 | 48.3 |
| mG*mU*mA*mA*mA*dA*dG*dG*dA*dG*dA*dA*dA*dA*dC*mU*mA*mU*mC*mU | – | – | 1.14 | 31.7 |
